Measured values as given in patent US9080197B2, “Equol level regulator” (priority 2005, dated 2015).
Where two headings read alike, the source gives them in different places.

Legend:
[1] = test system: feces of an equol producer (microorganisms having conversion ability to equol); test: Effect of carbohydrates upon equol production in anaerobic culture of feces of an equol producer with daidzein; type: cell-based; details: for activity at 1 %: Homo sapiens; for Equol concentration in medium: anaerobic, 37° C., no carbohydrate 18.1 μM; for daidzein added to the medium remaining: 100 μM of daidzein added
Text: The equol concentration regulating activity of a carbohydrate can be checked by taking feces from a human having ability to produce equol (equol producer), adding daidzein serving as a substrate for equol and a target carbohydrate to the feces thus taken, culturing the feces, determining the concentration of equol in the culture medium and fitting the determined equol concentration to the following equation in comparison with the concentration of equol in a culture medium containing no carbohydrate. Equal concentration regulating activity (%)=(equol concentration of a culture medium containing a target carbohydrate)/(equol concentration of a culture medium containing no carbohydrate)×100
Fresh feces of an equol producer were suspended in a dilute solution (10-fold by volume) containing 0.00255% of KH2PO4, 0.00255% of K2HPO4, 0.006% of NaCl, […] of (NH4)2SO4, 0.000255% of CaCl2, 0.000255% of MgSO4, 0.1% of a 0.1% resazurin solution, 2.2% of an 8% Na2CO3 solution and 0.05% of L-cysteine hydrochloride by use of glass beads (φ 3 mm) in anaerobic conditions and solid matter was removed by use of sterilized gauze. The solution was centrifuged at 8,000 rpm for 10 minutes. Precipitation was suspended in a dilute solution in the same amount thereof. The solution was stored in a freezer at −30° C. as it was.
The feces dilution solution was thawed and centrifuged again. Precipitation was resuspended in PY medium (100-fold by volume) containing 0.5% of peptone, 0.5% of trypticase peptone, 1% of yeast extract, 0.00005% of hemin, 0.0001% of vitamin K1, 0.05% of L-cysteine hydrochloride, 0.0006% of KH2PO4, 0.0006% of K2HPO4, 0.0012% of NaCl, 0.0006% of (NH4)2SO4, 0.00006% of CaCl2 and 0.00006% of MgSO4. At this time, adonitol, arabinose, cellobiose, erythritol, fructo-oligosaccharide, fructose, galactose, glucose, glycogen, inositol, […], lactitol, lactose, lactulose, maltose, mannitol, mannose, melezitose, melibiose, raffinose, rhamnose, ribose, sorbitol, sorbose, sucrose, trehalose, xylose, or galacto-oligosaccharide was added so as to obtain a final concentration of 1%. Simultaneously, a series of sample containing no carbohydrate was prepared. To the series of samples, daidzein was added so as to obtain a final concentration of 100 μM. Culture was performed in completely anaerobic conditions at 37° C. for 16 hours. Note that culture was performed independently in four series. From the culture solution obtained, daidzein and equol were extracted and subjected to HPLC analysis. Note that inositol used herein is myo-inositol manufactured by SIGMA and glycogen was one derived from oyster and manufactured by SIGMA. Trehalose is D(+) trehalose (α,α form) manufactured by SIGMA and galacto-oligosaccharide is TOS-S, which is a mixture of 4′galactosyl-lactose and 6′galactosyl-lactose, and manufactured by Yakult Pharmaceutical Industry Co., Ltd. Fructo-oligosaccharide is a mixture of 1-kestose, nystose and 1-fructosyl-D-nystose manufactured by Wako Pure Chemical Industries, Ltd.
Daidzein and equol were extracted by the following manner. To 500 μL of a culture solution, 250 μL of diethyl ether was added and sufficiently stirred. The solution mixture was centrifuged at 2,000 rpm for 10 minutes to obtain a diethyl ether layer. The remaining aqueous layer was subjected to diethyl ether extraction performed in the same manner. The ether layers obtained in the two extraction operations were combined, concentrated and dried under spray of nitrogen gas flow at 40° C. The dried product was dissolved in 250 μL of 80% methanol and filtrated through a filter to obtain a sample to be subjected to measurement.
Furthermore, HPLC was performed in the following conditions:
Daidzein and equol standard products were poured in the aforementioned conditions to form calibration curves, respectively. In this manner, daidzein and equol concentrations of the samples were determined. […]

[2] = test system: microorganism having conversion ability to equol; test: Sub-culture of feces of an equol producer in PY medium containing a carbohydrate (selective medium), daidzein-to-equol conversion; type: cell-based; details: PY medium with 1% carbohydrate, daidzein 100 μM, 37° C., 16 hours per passage
Protocol: A feces suspension solution stored in the process according to Experimental Example 1 was added to 500 μL of PY mediums (to which adonitol or sorbose was previously added so as to obtain a final concentration of 1%; and distilled water was added in place of adonitol or sorbose for preparing a control sample) so as to obtain a content of 1/10 and daidzein was added so as to obtain a final concentration of 100 μM. Each medium was cultured at 37° C. for 16 hours in completely anaerobic conditions. After the culturing, an aliquot of 50 μL was taken from the culture solution and transferred to a fresh PY medium (500 μL). The remaining culture solution was subjected to daidzein and equol extraction. Thereafter, the same operation was repeatedly performed. In this manner, sub-culture was performed. At this time, a bacterial solution was appropriately subjected to gram staining and microscopically observed. The extraction of daidzein and equol, and quantification by HPLC were performed in accordance with the method described in Experimental Example 1. Each obtained daidzein and equol concentration was fitted into the following formula to obtain a daidzein-to-equol conversion rate. Note that culture was performed independently in three series to obtain an average conversion rate and standard deviation thereof. […]

[3] = rat, Non-Patent Document 5; cited from earlier work
[4] = relative to medium containing no carbohydrate (=100%), carbohydrate 1%, daidzein 100 μM, 16 hours, read-out: Equol concentration regulating activity
[5] = sample containing no carbohydrate taken as 100%, carbohydrate 1%, read-out: daidzein-to-equol conversion rate
[6] = carbohydrate 1%, daidzein 100 μM, 16 hours
[7] = read-out: daidzein-to-equol conversion rate
[8] = relative to medium containing no carbohydrate (=100%), carbohydrate 1%, daidzein 100 μM, 16 hours

Row | Molecule | activity at 1 % [1, 4] [%] | activity at 1 % [1, 5] [%] | Equol concentration in medium [1, 6] [µM] | other results
1 | OC[C@H]1O[C@@H](O[C@@H]2[C@@H](CO)OC(O)(CO)[C@H]2O)[C@H](O)[C@@H](O)[C@H]1O (mixture of isomers) [Lactulose, lactulose] | 8.1 | ≤ 50 | 1.5 | –
2 | OC[C@@H](O)[C@@H](O)[C@@H](O)CO [Adonitol, adonitol] | 260 | ≥ 200 | 47.0 | generation to which conversion ability to equol can be maintained in sub-culture [2]: 8th
3 | O=C[C@@H](O)[C@H](O)[C@H](O)CO [Arabinose, arabinose] | 391 | ≥ 200 | 70.6 | –
4 | O=C[C@H](O)[C@@H](O)[C@H](O[C@@H]1O[C@H](CO)[C@@H](O)[C@H](O)[C@H]1O)[C@H](O)CO [Cellobiose, cellobiose] | 161 | – | 29.0 | –
5 | OC[C@@H](O)[C@@H](O)CO [Erythritol, erythritol] | 214 | ≥ 200 | 38.7 | –
6 | O=C(CO)[C@@H](O)[C@H](O)[C@H](O)CO [Fructose, fructose] | 51.5 | – | 9.3 | –
7 | O=C[C@H](O)[C@@H](O)[C@@H](O)[C@H](O)CO [Galactose, galactose] | 240 | – | 65.0 | activity at 1 % [1, 7]: ≥ 200%
8 | O[C@H]1[C@H](O)[C@@H](O)[C@H](O)[C@@H](O)[C@H]1O [Inositol, myo-inositol] | 416 | ≥ 200 | 75.2 | –
9 | OC[C@@H](O)[C@@H](O[C@@H]1O[C@H](CO)[C@H](O)[C@H](O)[C@H]1O)[C@H](O)[C@@H](O)CO [Lactitol, lactitol] | 459 | ≥ 200 | 82.9 | –
10 | OC[C@H]1O[C@@H](O[C@H]2[C@H](O)[C@@H](O)C(O)O[C@@H]2CO)[C@H](O)[C@@H](O)[C@H]1O (stereo partly shown) [Lactose, lactose] | 0 | ≤ 50 | 0.0 | daidzein added to the medium remaining ([1]; carbohydrate 1%): mostly remained; equol production [1, 6]: not observed
11 | OC[C@H]1O[C@H](O[C@H]2[C@H](O)[C@@H](O)[C@H](O)O[C@@H]2CO)[C@H](O)[C@@H](O)[C@@H]1O [Maltose, maltose] | 58.5 | – | 10.6 | –
12 | OC[C@@H](O)[C@@H](O)[C@H](O)[C@H](O)CO [Mannitol, mannitol] | 182 | – | 32.9 | –
13 | OC[C@H]1O[C@@](CO)(O[C@H]2O[C@H](CO)[C@@H](O)[C@H](O)[C@H]2O)[C@@H](O[C@H]2O[C@H](CO)[C@@H](O)[C@H](O)[C@H]2O)[C@@H]1O [Melezitose, melezitose] | 412 | ≥ 200 | 74.3 | –
14 | OC[C@H]1O[C@H](OCC2O[C@@H](O)[C@H](O)[C@@H](O)[C@@H]2O)[C@H](O)[C@@H](O)[C@H]1O (stereo partly shown) [Melibiose, melibiose] | – | – | 4.5 | Equol concentration regulating activity [1, 8]: 24.8%
15 | OC[C@H]1O[C@H](OC[C@H]2O[C@H](O[C@]3(CO)O[C@H](CO)[C@@H](O)[C@@H]3O)[C@H](O)[C@@H](O)[C@@H]2O)[C@H](O)[C@@H](O)[C@H]1O [Raffinose, raffinose] | 0 | ≤ 50 | 0.0 | daidzein added to the medium remaining ([1]; carbohydrate 1%): mostly remained; equol production [1, 6]: not observed
16 | C[C@H](O)[C@H](O)[C@@H](O)[C@@H](O)C=O [Rhamnose, rhamnose] | 116 | – | 21.0 | –
17 | O=C[C@H](O)[C@H](O)[C@H](O)CO [Ribose, ribose] | 330 | ≥ 200 | 59.5 | –
18 | OC[C@@H](O)[C@@H](O)[C@H](O)[C@@H](O)CO [Sorbitol, sorbitol] | 372 | ≥ 200 | 67.3 | –
19 | O=C(CO)[C@H](O)[C@@H](O)[C@H](O)CO [Sorbose, sorbose] | 468 | – | 84.5 | activity at 1 % [1, 7]: ≥ 200%; generation to which conversion ability to equol can be maintained in sub-culture [2]: 11th
20 | OC[C@H]1O[C@@](CO)(O[C@H]2O[C@H](CO)[C@@H](O)[C@H](O)[C@H]2O)[C@@H](O)[C@@H]1O [Sucrose, sucrose] | 0 | ≤ 50 | 0.0 | daidzein added to the medium remaining ([1]; carbohydrate 1%): mostly remained; equol production [1, 6]: not observed
21 | OC[C@H]1O[C@H](O[C@H]2O[C@H](CO)[C@@H](O)[C@H](O)[C@H]2O)[C@H](O)[C@@H](O)[C@@H]1O [Trehalose, D(+) trehalose] | 404 | ≥ 200 | 72.9 | –
22 | O=C[C@H](O)[C@@H](O)[C@H](O)CO [Xylose, xylose] | 443 | ≥ 200 | 79.9 | –
23 | Inulin [reference compound] | – | – | 0.0 | daidzein added to the medium remaining ([1]; carbohydrate 1%): mostly remained; effect on daidzein-to-equol conversion rate in this test system ([1]; carbohydrate 1%): significantly decreases; equol production [1, 6]: not observed; Equol concentration regulating activity [1, 8]: 0.0%; equol concentration in the serum [3]: reduces
24 | glycogen | – | – | 33.4 | Equol concentration regulating activity [1, 8]: 184.8%
